Test results published in publication PMC11915509, “Small molecule inhibitors of hnRNPA2B1–RNA interactions reveal a predictable sorting of RNA subsets into extracellular vesicles” (Nucleic Acids Research, 2025).

Tests used:
GST-hnRNPA2B1 = molecular target: T1, GST-hnRNPA2B1 (Homo sapiens, UniProt P22626); assay: AlphaScreen binding kinetics with EXOmotif probe; details: 30 nM GST-hnRNPA2B1, time frame of 2 h
T1 construct: purified a human full-length, GST-tagged protein expressed in Escherichia coli cells; made in house; host or cells: E. coli BL21 (DE3)
Experimental: AlphaScreen assay was used to study the interaction between hnRNA2B1 and different biotinylated single-stranded RNA probes: EXO RNA (5′-BTeg- […]), RNA 114 (5′- BTeg-[…]), and RNA 276 (5′-B-Teg- […]). The assays were performed in OptiPlate-384-well plates (PerkinElmer, 6007299) in 20 μl final volume. The ligands were diluted in AlphaBuffer [25 mM HEPES, pH 7.4, 100 mM NaCl, 0.01% bovine serum albumin (BSA)] and tested using AlphaScreen GST Detection Kit (PerkinElmer, 6760603C). For the assay optimization, different concentrations of the RNA probes (0–100 nM) were incubated with different concentrations of GST-hnRNPA2B1 (0–60 nM) in the presence of streptavidin Donor beads and anti-GST-Acceptor beads (PerkinElmer) (20 μg/ml final concentration). […]
Figure 2. […] Dissociation constants (Kd) were determined from nonlinear regression one-site binding model in GraphPad Prism®, version 9.0. […] Association (Kon) and dissociation (Koff) rate constants and equilibrium dissociation constants (koff/kon) were determined using nonlinear regression association kinetic model of multiple ligand concentration in GraphPad Prism®, version 9.0. […] Densitometric quantification of protein fractions were normalized to the input. […] (G) Distribution of positive (EXOmotif) and negative (ARE) protein–RNA probe interactions calculated in the primary drug screening. […]

hnRNPA2B1 isoform = tested on: hnRNPA2B1 isoform; set-up: method as in PMID 29379020; details: hnRNPA2B1 isoform ref 45; read-out: observed Kd; cited from earlier work

T1 sequence (P22626 whole entry): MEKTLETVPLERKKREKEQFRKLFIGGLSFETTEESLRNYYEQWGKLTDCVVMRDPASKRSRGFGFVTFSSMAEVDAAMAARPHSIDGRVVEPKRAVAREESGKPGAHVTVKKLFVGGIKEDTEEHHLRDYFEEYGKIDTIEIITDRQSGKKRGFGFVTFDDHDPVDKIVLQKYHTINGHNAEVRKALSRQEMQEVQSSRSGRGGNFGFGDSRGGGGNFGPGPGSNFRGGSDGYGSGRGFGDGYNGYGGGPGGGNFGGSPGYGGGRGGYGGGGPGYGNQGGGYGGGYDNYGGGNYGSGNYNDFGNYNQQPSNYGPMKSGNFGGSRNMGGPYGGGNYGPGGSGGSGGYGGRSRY

Substance | association rate constant kon (GST-hnRNPA2B1) | Kd (hnRNPA2B1 isoform)
EXOmotif: single-stranded RNA oligo 5′-GGGGAGGUUAGGGAGGAGGGGGGUAGGCGCC (RNA, backbone not given here) | 523 664 M^−1min^−1 | 
RNA 114: RNA oligo 5′-AAGGACUAGC |  | 114 nM
